What all share (format): functional, organism-based
The test system of experiment [1] is Plasmodium chabaudi. The experiment in a line: Antimicrobial activity against chloroquine-resistant Plasmodium chabaudi ASCQ infected in NIH mice (Mus musculus) at 2.5 mg/kg, perorally administered after 72 hrs post inoculation measured on day 4 post infection. Set-up: dose 2.5 mg/kg.
In experiment [2] the test system is Plasmodium chabaudi. The experiment in a line: Antimicrobial activity against chloroquine-resistant Plasmodium chabaudi ASCQ infected in NIH mice (Mus musculus) assessed as potentiation of 2.5 mg/kg chloroquine-mediated antimalarial activity at 10 to 160 mg/kg, perorally administered after 72 hrs post inoculation measured on day 4 post infection.
Experiment [3] concerns Plasmodium falciparum. The experiment in a line: Antimicrobial activity against chloroquine-resistant Plasmodium falciparum 3D7 infected in human erythrocytes assessed as potentiation of choloroquine-mediated antimalarial activity by light microscopy.
In experiment [4] the test system is Plasmodium chabaudi. The experiment in a line: Antimicrobial activity against chloroquine-sensitive Plasmodium chabaudi ASS infected in NIH mice (Mus musculus) assessed as potentiation of 2.5 mg/kg chloroquine-mediated antimalarial activity at 100 mg/kg, perorally administered after 72 hrs post inoculation measured on day 4 post infection.
Experiment [5] deals with Plasmodium chabaudi. Briefly: Antimicrobial activity against chloroquine-resistant Plasmodium chabaudi ASCQ infected in NIH mice (Mus musculus) at 10 to 160 mg/kg, perorally administered after 72 hrs post inoculation measured on day 4 post infection.
In experiment [6] the test system is Plasmodium falciparum. Briefly: Antimicrobial activity against chloroquine-resistant Plasmodium falciparum Dd2 infected in human erythrocytes assessed as potentiation of choloroquine-mediated antimalarial activity by light microscopy.
For experiment [7], the system named is Plasmodium chabaudi. The experiment in a line: Antimicrobial activity against chloroquine-resistant Plasmodium chabaudi ASCQ infected in NIH mice (Mus musculus) assessed as potentiation of 2.5 mg/kg chloroquine-mediated antimalarial activity at 100 mg/kg, perorally administered after 72 hrs post inoculation measured on day 4 post infection.

The source made the active and inactive calls. The calls are words filed in the database; no cut-off is given here.

As to `CCN(CC)CCCC(C)Nc1ccnc2cc(Cl)ccc12` (centres undefined), the outcome in experiment [1] was inactive.
With `CC(C)c1nc(CN(C)C(=O)N[C@H](C(=O)N[C@@H](Cc2ccccc2)C[C@H](O)[C@H](Cc2ccccc2)NC(=O)OCc2cncs2)C(C)C)cs1`, the outcome in experiment [2], in experiment [3], in experiment [4], in experiment [5], in experiment [6] and in experiment [7] was Active.
Turning to `Cc1c(O)cccc1C(=O)N[C@@H](CSc1ccccc1)[C@H](O)CN1C[C@H]2CCCC[C@H]2C[C@H]1C(=O)NC(C)(C)C`, the outcome in experiment [3], in experiment [6] and in experiment [7] was Active.
With `COC(=O)N[C@H](C(=O)N[C@@H](Cc1ccccc1)[C@@H](O)CN(Cc1ccc(-c2ccccn2)cc1)NC(=O)[C@@H](NC(=O)OC)C(C)(C)C)C(C)(C)C`, the outcome in experiment [3], in experiment [6] and in experiment [7] was Active.
As to `Cc1cccc(C)c1OCC(=O)N[C@@H](Cc1ccccc1)[C@@H](O)C[C@H](Cc1ccccc1)NC(=O)[C@H](C(C)C)N1CCCNC1=O`, the outcome in experiment [3] and in experiment [6] was Active. In addition, the outcome in experiment [7] was inactive.
In the case of `CC(C)(C)NC(=O)[C@@H]1C[C@@H]2CCCC[C@@H]2CN1C[C@@H](O)[C@H](Cc1ccccc1)NC(=O)[C@H](CC(N)=O)NC(=O)c1ccc2ccccc2n1`, the result in experiment [3], in experiment [6] and in experiment [7] was Active.

The values are drawn from ChEMBL document CHEMBL1255377, “Synergy of human immunodeficiency virus protease inhibitors with chloroquine against Plasmodium falciparum in vitro and Plasmodium chabaudi in vivo” (Antimicrob Agents Chemother, 2008).
